Measurements published in US20210128596A1, “COMPOSITIONS AND METHODS FOR TREATING SEPTIC CARDIOMYOPATHY” (UNIVERSITY OF PENNSYLVANIA, priority 2017, published 2021).

Key:
Type in all cases: in vivo, mouse
[1] = tested on: permeabilized adult cardiomyocytes; assay: Calcium uptake assay in permeabilized adult cardiomyocytes; conditions: cardiomyocytes isolated 12 h after CLP, 6 h after LGM2605
Procedure: Calcium uptake assay in permeabilized adult cardiomyocytes Cardiomyocytes were isolated from mice 12 hours after CLP or sham surgery and 6 hours after LGM2605 or saline injection. Calcium uptake was performed as previously described^22 and detailed below. Before permeabilization, cardiomyocytes were washed in a Ca free buffer (120 mM NaCl, 5 mM KCL 1 mM KH2PO4, 0.2 mM MgCl2, 0.1 mM EGTA and 20 mM HEPES-NaOH, at pH 7.4) and stored on ice for at least 10 min. Cardiomyocytes were pelleted by centrifugation and transferred to an intracellular-like medium (permeabilization buffer: 120 mM KCl, 10 mM. NaCl, 1 mM KH2PO4, 20 mM, 4 HEPES-Tris, at pH 7.2, protease inhibitors (EDTA-free complete tablets, Roche Applied Science), 2 μM thapsigargin and digitonin (40 μg ml^−1)). The cell suspension supplemented with succinate (2 mM) was placed in a fluorimeter and permeabilized by gentle stirring. Fura2FF (0.5 μM) was added at 0 s, and JC-1 (800 nM) at 20 s. Fluorescence signal was monitored in a temperature-controlled (37° C.) multiwavelength-excitation dual-wavelength-emission spectrofluorometer (Delta RAM, Photon Technology International) using 490-nm excitation/535-nm emission for the JC-1 monomer. 570-nm excitation/595-nm emission for the J-aggregate of JC-1 and 340-nm/380-nm for Fura2FF. At 400 s, a single 10 μM Ca^2+ pulse was added, and changes in cytosolic [Ca^2] was monitored. […]

[2] = tested on: MCU and MICU1; assay: MCU and MICU1 mRNA and protein levels after LPS; conditions: LPS with SDG
Procedure: Mice were either sham treated or treated with LPS in with or without SDG (n=3 for each group) and the levels of MCU and MICU1 mRNAs were measured in quantitative PCR while the levels of protein were assessed through western blot.
RNA purification and gene expression analysis—Total RNA was purified from AC16 cells or hearts using the TRIzol reagent according to the instructions of the manufacturer (Invitrogen). DNase-treated RNA was used for cDNA synthesis using the ProtoScript II First Strand cDNA Synthesis Kit (New England Biolabs). Quantitative real-time PCR was performed with the Sybr Select Master Mix (Applied Biosystems). Incorporation of the SYBR green dye into the PCR products was monitored with the Applied Biosystems StepOnePlus Real-Time PCR System. Samples were normalized against mouse 36B4 or human rps13 RNA.
Protein purification and analysis—Isolated heart tissue or AC16 cells were homogenized in radioimmune precipitation assay buffer containing protease and phosphatase inhibitors (Pierce Protease and Phosphatase Inhibitor Mini Tablets, Thermo Scientific). 30-50 μg of total protein extract was applied to SDS-PAGE and transferred onto nitrocellulose membranes.

[3] = tested on: C57BL/6 mice; assay: Echocardiography after cecal ligation and puncture (CLP) or sham surgery; parameters: LVID; d / EF / FS / LV Mass / LV Mass (Corrected) / LV Vol; d / IVS; d: unit not given here
Procedure: Mice were either sham treated or subjected to cecal ligation puncture (CLP). SDG was administered either 2 hours prior to CLP or 6 hours following CLP. Echocardiograms from each group of mice was collected (FIG. 2A) and ejection fraction (EF, left) and fractional shortening (FS, right) was determined.
Animal care, cecal ligation and puncture procedure and echocardiography—Animal protocols were approved by the Temple University Institutional Animal Care and Use Committee and were carried out in accordance with the NIH guidelines for the care and use of laboratory animals. Wild type (WT) 8-12 week old C57BL/6 mice were purchased from Jackson labs. Cecal ligation and puncture (CLP) was performed as previously described. Mice were anesthetized with 3.5% inhaled isofluorane. Under aseptic conditions, a 1 to 2 cm midline laparotomy was performed and exposure of the cecum with adjoining intestine. The cecum was tightly ligated at its base below the ileo-cecal valve at a distance of lcm and was punctured twice with a 19-gauge needle. The length of the ligated cecum was defined as the distance from the distal end of cecum to ligation point, which affects the degree of disease severity. Fecal material was extruded from the punctured cecum, and it was returned to the peritoneal cavity. The peritoneum and the skin were closed with three sutures. The mice were resuscitated by injecting subcutaneously lml of pre-warmed 0.9% saline solution to induce the hyperdynamic phase of sepsis and for post-operative analgesia the mice received subcutaneously buprenorphine (0.05 mg·kg body weight). Mice received a single intraperitoneal injection of LGM2605 (100 mg/kg i.p.) that was administrated either 2 h prior to CLP or 6 h post CLP. At 12 h post CLP, two-dimensional echocardiography was performed on anesthetized mice (1.5% inhaled isoflurane) using a VisualSonics Vevo 2100 machine. Echocardiographic images were recorded in a digital format. A single observer blinded to the respective treatments of mice analyzed short-axis m-mode images by LV trace. The number of mice used for each experiment are mentioned in the figure legends.

[4] = tested on: β adrenergic receptors; assay: Radioligand binding assay for cardiac β-AR density; conditions: hearts 12 h post-CLP, LGM2605 6 h post-CLP
Procedure: Radioligand binding assay—Plasma membranes from excised mouse hearts were prepared, and saturation radio-ligand binding was performed as described previously, using ^125I-CYP (iodocyanopindolol; PerkinElmer, Waltham, Mass.) for β-AR density measurement. Data were analyzed by nonlinear regression analysis using GraphPad Prism (GraphPad Software, La Jolla, Calif.).

[5] = CLP + LGM2605 (6 hr), 100 mg/kg i.p. 6 h post CLP, echo 12 h post CLP
[6] = CLP + LGM2605 (−2 hr), 100 mg/kg i.p. 2 h prior to CLP, echo 12 h post CLP
[7] = Sham + LGM2605 (6 hr), 100 mg/kg i.p., echo 12 h post-surgery

COc1cc(C[C@@H](CO[C@@H]2O[C@H](CO)[C@@H](O)[C@H](O)[C@H]2O)[C@H](CO[C@@H]2O[C@H](CO)[C@@H](O)[C@H](O)[C@H]2O)Cc2ccc(O)c(OC)c2)ccc1O [LGM2605, secoisolariciresinol diglucoside]
mitochondrial calcium uptake [1]: increased mitochondrial Ca^2+ uptake rate and release of Ca^2+ following CCCP administration beyond that observed for sham operated mice | mitochondrial calcium uptake ([1]; listed as SDG): mitochondrial calcium uptake was increased | MCU and MICU1 mRNA levels [2]: restored mRNA expression | MCU protein level (western blot) [2]: reverses the LPS-mediated decrease of MCU protein level | MICU1 protein level (western blot) [2]: increases MICU1 protein level | EF [3, 5]: 72.7 | FS [3, 5]: 41.3 | IVS; d [3, 5]: 1.4 | IVS; s [3, 5]: 1.8 | LV Mass [3, 5]: 129.2 | LV Mass (Corrected) [3, 5]: 103.3 | LV Vol; d [3, 5]: 30.2 | LV Vol; s [3, 5]: 8.4 | LVID; d [3, 5]: 2.8 | LVID; s [3, 5]: 1.6 | LVPW; d [3, 5]: 1.1 | LVPW; s [3, 5]: 1.6 | EF [3, 6]: 71.7 | FS [3, 6]: 39.3 | IVS; d [3, 6]: 1.3 | IVS; s [3, 6]: 1.6 | LV Mass [3, 6]: 97.2 | LV Mass (Corrected) [3, 6]: 77.8 | LV Vol; d [3, 6]: 18.6 | LV Vol; s [3, 6]: 5.3 | LVID; d [3, 6]: 2.3 | LVID; s [3, 6]: 1.4 | LVPW; d [3, 6]: 1.1 | LVPW; s [3, 6]: 1.5 | CLP-mediated cardiac dysfunction ([3]; LGM2605 100 mg/kg i.p. 2 h prior to CLP or 6 h post-CLP): prevented CLP-mediated cardiac dysfunction | cardiac fractional shortening ([3]; SDG 100 mg/kg body weight, i.p., 6 hours post-CLP surgery): increased cardiac fractional shortening | ejection fraction (EF) and fractional shortening (FS) ([3]; SDG 2 hours prior to CLP or 6 hours following CLP): restores EF and to pre-CLP levels | EF [3, 7]: 66.7 | FS [3, 7]: 36.4 | IVS; d [3, 7]: 1.1 | IVS; s [3, 7]: 1.5 | LV Mass [3, 7]: 146.7 | LV Mass (Corrected) [3, 7]: 117.4 | LV Vol; d [3, 7]: 55.4 | LV Vol; s [3, 7]: 17.9 | LVID; d [3, 7]: 3.6 | LVID; s [3, 7]: 2.3 | LVPW; d [3, 7]: 1.0 | LVPW; s [3, 7]: 1.4 | systolic function ([3]; septic mice treated with LGM2605): normal systolic function | cardiac β-AR density [4]: not reversed by treatment with LGM2605
